Measured values reported in patent US20250332112A1, “IONIZABLE CATIONIC LIPIDS FOR LIPID NANOPARTICLES” (GENEVANT SCIENCES GMBH, priority 2022, published 2025).

Legend:
[1] = Particle characteristics of LNPs containing luciferase mRNA and novel ionizable lipids; assay type: physicochemical
Method in brief: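 LNPs made from PEG-lipid, ionizable lipid, cholesterol and phospholipid in ethanol, T-mixed with luciferase mRNA in 100 mM acetate pH 5. Products were dialysed, concentrated, and dialysed into 5 mM Tris, 10% sucrose, pH 8, then 0.2 μm filtered. mRNA was measured by RiboGreen, and size and polydispersity by dynamic light scattering on a Zetasizer.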

[2] = Particle characteristics of LNPs containing EGFP mRNA and novel ionizable lipids; assay type: physicochemical; settings: EGFP mRNA LNP 1.6:54.6:32.8:10.9
Method in brief: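 LNPs of PEG-lipid, ionizable lipid, cholesterol and phospholipid in ethanol were mixed 1:1 with mRNA in 100 mM acetate pH 5 via T-junction, diluted in PBS, dialysed, concentrated to ~0.6 mg/mL and exchanged into 5 mM Tris, 10% sucrose, pH 8. Size and polydispersity by Zetasizer; nucleic acid by RiboGreen.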

[3] = Parent ionizable lipid remaining in liver at 24 h after EGFP mRNA LNP (LC-MS); assay type: in vivo; settings: 24 h after IV 0.5 mg/kg EGFP mRNA LNP, female BALB/c mice (n = 4)
[4] = Table 1, luciferase mRNA LNP 1.6:54.6:32.8:10.9
[5] = Table 2, luciferase mRNA LNP 1.6:54.6:32.8:10.9
[6] = Table 3, luciferase mRNA LNP 1.6:54.6:32.8:10.9
[7] = Table 4, luciferase mRNA LNP 1.6:54.6:32.8:10.9
[8] = Table 5, luciferase mRNA LNP 1.6:54.6:32.8:10.9
[9] = Table 6, luciferase mRNA LNP 1.6:54.6:32.8:10.9
[10] = Table 7, luciferase mRNA LNP 1.6:54.6:32.8:10.9

CCCCC/C=C\CCCC(CCC/C=C\CCCCC)C(CCC/C=C\CCCCC)OC(=O)CCCCN(C)C (stereo not shown) [Compound 13-B43, reference compound]
Final Product % EE [1, 4]: 94% | Final Product PDI [1, 4]: 0.13 | Final Product Z-avg ([1]; Table 1, luciferase mRNA LNP 1.6:54.6:32.8:10.9 PEG2000-C-DMA:Ionizable lipid:Cholesterol:DSPC): 70 nm | Final Product % EE [1, 5]: 99% | Final Product PDI [1, 5]: (0.03) | Final Product Z-avg [1, 5]: 72 nm | Final Product % EE [1, 6]: 99% | Final Product PDI [1, 6]: 0.06 | Final Product Z-avg [1, 6]: 72 nm | Final Product % EE [1, 7]: 98% | Final Product PDI [1, 7]: 0.07 | Final Product Z-avg [1, 7]: 72 nm | Final Product % EE [1, 8]: 98% | Final Product PDI [1, 8]: 0.06 | Final Product Z-avg [1, 8]: 69 nm | Final Product % EE [1, 9]: 99% | Final Product PDI [1, 9]: 0.07 | Final Product Z-avg [1, 9]: 77 nm | Final Product % EE [1, 10]: 98% | Final Product PDI [1, 10]: 0.06 | Final Product Z-avg [1, 10]: 74 nm | Final Product % EE ([2]; Table 20): 98% | Final Product PDI ([2]; Table 20): 0.07 | Final Product Z-avg ([2]; Table 20): 75 nm | Final Product % EE ([2]; Table 21): 97% | Final Product PDI ([2]; Table 21): 0.08 | Final Product Z-avg ([2]; Table 21): 75 nm | Final Product % EE ([2]; Table 22): 97% | Final Product PDI ([2]; Table 22): 0.08 | Final Product Z-avg ([2]; Table 22): 73 nm | Final Product % EE ([2]; Table 23): 98% | Final Product PDI ([2]; Table 23): 0.15 | Final Product Z-avg ([2]; Table 23): 76 nm | Parent ionizable lipid remaining in liver, Average ([3]; Table 28): 38.48 nmol/g liver | Parent ionizable lipid remaining in liver, Average ([3]; Table 29): 29.77 nmol/g liver | Parent ionizable lipid remaining in liver, Average ([3]; Table 30): 50.86 nmol/g liver | Parent ionizable lipid remaining in liver, Average ([3]; Table 31): 23.9 nmol/g liver
